Assay results as given in paper PMC12888861, “Antibacterial activity of enmetazobactam against Acinetobacter spp.: a molecular dissection of mechanism of action and resistance determinants” (Antimicrobial Agents and Chemotherapy, 2025).
Values after ≈ are worked out from the molar mass of the structure shown.

Tested on: carbapenem-resistant A. baumannii (CRAB) isolates (n = 67)
Test: MIC, broth microdilution (EUCAST), carbapenem-resistant A. baumannii isolates
Format: cell-based, Acinetobacter baumannii
Settings: Acinetobacter baumannii
From the text: The bacterial strains used in this study comprised 208 clinical isolates from the Spanish National Acinetobacter spp. 2020 Multicenter Collection, which was previously characterized in detail by our research group, including whole-genome sequencing, phylogenetics studies, clonal dynamics, and resistance mechanisms ([2], [29]). Additionally, a collection of A. baumannii ATCC 17978 transformants coding the blaOXA-23, blaOXA-24/40, blaOXA-51, blaOXA-58, blaOXA-143, and blaOXA-201 genes, previously constructed and described by our group ([30]), was used to determine the activity of enmetazobactam against strains carrying the main CHDLs of A. baumannii.
The antimicrobial susceptibility of the 208 Acinetobacter spp. isolates was assessed using the broth microdilution method, as described in the European Committee on Antimicrobial Susceptibility Testing (EUCAST) v.15 guidelines (http://www.eucast.org/clinical_breakpoints). […] MICs for enmetazobactam alone were assessed as well. […] Subsequently, MIC testing was also conducted with a collection of A. baumannii ATCC 17978 transformants expressing clinically relevant OXA-like carbapenemase genes.
The A. baumannii ATCC 19606 strain was used as the reference strain in all susceptibility experiments, in duplicate assays. Antibiotics were purchased from Sigma-Aldrich, except enmetazobactam and durlobactam, which were obtained from Advanz Pharma and MedChemExpress, respectively.

Compound `C[n+]1ccn(C[C@@]2(C)[C@H](C(=O)[O-])N3C(=O)C[C@H]3S2(=O)=O)n1` [enmetazobactam] has an MIC (MBC set, isolate Ab4, A. baumannii ST 2, ADC-30, OXA-66, ISAba1-OXA-23) of 64 µg/mL (≈ 204 µM), an MIC (MBC set, isolate Ab6, A. baumannii ST 2, ADC-30, OXA-66, ISAba1-OXA-23, TEM-12) of 64 µg/mL (≈ 204 µM) and an MIC (MBC set, isolate Ab9, A. baumannii ST 2, ADC-30, OXA-66, OXA-23, TEM-12) of 8 µg/mL (≈ 25.5 µM). For the same compound, the MIC (isolate Ab56, ST 1, ADC-75, OXA-69, OXA-23, ETZ fixed 8 mg/L in combinations) was 64 µg/mL, the MIC (isolate Ab83, ST 25, ADC-5, OXA-64, OXA-23, DUR fixed at 4 mg/L in combinations) was 64 µg/mL and the MIC (isolate Ab83, ST 25, ADC-5, OXA-64, OXA-23, ETZ fixed 8 mg/L in combinations) was 64 µg/mL. It also gave an MIC (isolate Ab109, ST 1, ADC-75, OXA-69, OXA-23, DUR fixed at 4 mg/L in combinations) of 32 µg/mL, an MIC (isolate Ab109, ST 1, ADC-75, OXA-69, OXA-23, ETZ fixed 8 mg/L in combinations) of 32 µg/mL and an MIC (isolate Ab133, ST 2, ADC-30, OXA-66, OXA-58, TEM-12, DUR fixed at 4 mg/L in combinations) of 8 µg/mL. The MIC (isolate Ab133, ST 2, ADC-30, OXA-66, OXA-58, TEM-12, ETZ fixed 8 mg/L in combinations) was 8 µg/mL, the MIC (isolate Ab134, ST 2, ADC-30, OXA-66, OXA-58, TEM-12, DUR fixed at 4 mg/L in combinations) was 8 µg/mL and the MIC (isolate Ab134, ST 2, ADC-30, OXA-66, OXA-58, TEM-12, ETZ fixed 8 mg/L in combinations) was 8 µg/mL. For the same compound, the MIC (isolate Ab137, ST 85, ADC-2, OXA-94, OXA-23, DUR fixed at 4 mg/L in combinations) was 64 µg/mL, the MIC (isolate Ab137, ST 85, ADC-2, OXA-94, OXA-23, ETZ fixed 8 mg/L in combinations) was 64 µg/mL and the MIC (isolate Ab138, ST 745, ADC-30, OXA-66, OXA-58, DUR fixed at 4 mg/L in combinations) was 64 µg/mL. The MIC (isolate Ab138, ST 745, ADC-30, OXA-66, OXA-58, ETZ fixed 8 mg/L in combinations) was 64 µg/mL, the MIC (isolate Ab140, ST 85, ADC-2, OXA-94, OXA-23, DUR fixed at 4 mg/L in combinations) was 64 µg/mL and the MIC (isolate Ab140, ST 85, ADC-2, OXA-94, OXA-23, ETZ fixed 8 mg/L in combinations) was 64 µg/mL. For the same compound, the MIC (isolate Ab141, ST 745, ADC-30, OXA-66, OXA-58, DUR fixed at 4 mg/L in combinations) was 8 µg/mL, the MIC (isolate Ab141, ST 745, ADC-30, OXA-66, OXA-58, ETZ fixed 8 mg/L in combinations) was 8 µg/mL and the MIC (isolate Ab144, ST 745, ADC-30, OXA-66, OXA-58, DUR fixed at 4 mg/L in combinations) was 32 µg/mL. It also gave an MIC (isolate Ab144, ST 745, ADC-30, OXA-66, OXA-58, ETZ fixed 8 mg/L in combinations) of 32 µg/mL, an MIC (isolate Ab169, ST 2, ADC-30, OXA-66, OXA-23, DUR fixed at 4 mg/L in combinations) of 32 µg/mL and an MIC (isolate Ab169, ST 2, ADC-30, OXA-66, OXA-23, ETZ fixed 8 mg/L in combinations) of 64 µg/mL. For the same compound, the MIC (isolate Ab171, ST 2, ADC-30, OXA-66, OXA-23, DUR fixed at 4 mg/L in combinations) was 32 µg/mL, the MIC (isolate Ab171, ST 2, ADC-30, OXA-66, OXA-23, ETZ fixed 8 mg/L in combinations) was 64 µg/mL and the MIC (isolate Ab173, ST 2, ISAba1-ADC-30, OXA-66, OXA-23, DUR fixed at 4 mg/L in combinations) was 64 µg/mL. For the same compound, the MIC (isolate Ab173, ST 2, ISAba1-ADC-30, OXA-66, OXA-23, ETZ fixed 8 mg/L in combinations) was 64 µg/mL, the MIC (isolate Ab174, ST 2, ADC-30, OXA-66, OXA-23, DUR fixed at 4 mg/L in combinations) was 64 µg/mL and the MIC (isolate Ab174, ST 2, ADC-30, OXA-66, OXA-23, ETZ fixed 8 mg/L in combinations) was 64 µg/mL. For the same compound, the MIC (isolate Ab179, ST 2, ADC-30, OXA-66, OXA-23, DUR fixed at 4 mg/L in combinations) was 64 µg/mL, the MIC (isolate Ab179, ST 2, ADC-30, OXA-66, OXA-23, ETZ fixed 8 mg/L in combinations) was 64 µg/mL and the MIC (isolate Ab180, ST 2, ADC-30, OXA-66, OXA-24/40, DUR fixed at 4 mg/L in combinations) was 32 µg/mL. For the same compound, the MIC (isolate Ab180, ST 2, ADC-30, OXA-66, OXA-24/40, ETZ fixed 8 mg/L in combinations) was 32 µg/mL, the MIC (isolate Ab181, ST 2, ADC-30, OXA-66, OXA-23, DUR fixed at 4 mg/L in combinations) was 32 µg/mL and the MIC (isolate Ab181, ST 2, ADC-30, OXA-66, OXA-23, ETZ fixed 8 mg/L in combinations) was 32 µg/mL. The MIC (isolate Ab182, ST 2, ADC-30, OXA-66, OXA-23, DUR fixed at 4 mg/L in combinations) was 16 µg/mL, the MIC (isolate Ab182, ST 2, ADC-30, OXA-66, OXA-23, ETZ fixed 8 mg/L in combinations) was 16 µg/mL and the MIC (isolate Ab183, ST 2, ADC-30, OXA-66, OXA-23, DUR fixed at 4 mg/L in combinations) was 32 µg/mL. For the same compound, the MIC (isolate Ab183, ST 2, ADC-30, OXA-66, OXA-23, ETZ fixed 8 mg/L in combinations) was 32 µg/mL, the MIC (isolate Ab184, ST 2, ADC-30, OXA-66, OXA-23, DUR fixed at 4 mg/L in combinations) was 32 µg/mL and the MIC (isolate Ab184, ST 2, ADC-30, OXA-66, OXA-23, ETZ fixed 8 mg/L in combinations) was 32 µg/mL. It also gave an MIC (isolate Ab186, ST 2, ADC-30, OXA-66, OXA-23, DUR fixed at 4 mg/L in combinations) of 32 µg/mL, an MIC (isolate Ab186, ST 2, ADC-30, OXA-66, OXA-23, ETZ fixed 8 mg/L in combinations) of 32 µg/mL and an MIC (isolate Ab191, ST 2, ADC-30, OXA-66, OXA-23, DUR fixed at 4 mg/L in combinations) of 64 µg/mL.
